Measurements: patent US10392368B2, “Pyrazolo and triazolo bicyclic compounds as JAK kinase inhibitors” (THERAVANCE BIOPHARMA R&D IP, LLC, priority 2017, dated 2019)

Key:
JAK2 = target: T1, JAK2 (Homo sapiens, UniProt O60674); assay: Biochemical JAK2 kinase assay (LanthaScreen); details: for Ki: read-out: JAK 2 (pKi) (converted)
T1 construct: GST; purchased Life Technologies
Outline: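 pKi values derive from pIC50 via Cheng-Prusoff, with IC50 from a 4-parameter fit of percent-inhibition TR-FRET data using Tb-anti-pSTAT1 (pTyr701) detection. Compound, GST-JAK2 and GFP-STAT1 substrate were pre-incubated 1 h, then ATP started a 1 h ambient reaction (HEPES pH 7.5, 10 mM MgCl2, 1% DMSO).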

JAK3 = target: T2, JAK3 (Homo sapiens, UniProt P52333); assay: Biochemical JAK3 kinase assay (LanthaScreen); design: GST; purchased Life Technologies; details: for Ki: read-out: JAK 3 (pKi) (converted); for JAK3 (pKi)-JAK1 (pKi): selectivity JAK3 over JAK1, difference of pKi
T2 sequence (P52333 1-1124): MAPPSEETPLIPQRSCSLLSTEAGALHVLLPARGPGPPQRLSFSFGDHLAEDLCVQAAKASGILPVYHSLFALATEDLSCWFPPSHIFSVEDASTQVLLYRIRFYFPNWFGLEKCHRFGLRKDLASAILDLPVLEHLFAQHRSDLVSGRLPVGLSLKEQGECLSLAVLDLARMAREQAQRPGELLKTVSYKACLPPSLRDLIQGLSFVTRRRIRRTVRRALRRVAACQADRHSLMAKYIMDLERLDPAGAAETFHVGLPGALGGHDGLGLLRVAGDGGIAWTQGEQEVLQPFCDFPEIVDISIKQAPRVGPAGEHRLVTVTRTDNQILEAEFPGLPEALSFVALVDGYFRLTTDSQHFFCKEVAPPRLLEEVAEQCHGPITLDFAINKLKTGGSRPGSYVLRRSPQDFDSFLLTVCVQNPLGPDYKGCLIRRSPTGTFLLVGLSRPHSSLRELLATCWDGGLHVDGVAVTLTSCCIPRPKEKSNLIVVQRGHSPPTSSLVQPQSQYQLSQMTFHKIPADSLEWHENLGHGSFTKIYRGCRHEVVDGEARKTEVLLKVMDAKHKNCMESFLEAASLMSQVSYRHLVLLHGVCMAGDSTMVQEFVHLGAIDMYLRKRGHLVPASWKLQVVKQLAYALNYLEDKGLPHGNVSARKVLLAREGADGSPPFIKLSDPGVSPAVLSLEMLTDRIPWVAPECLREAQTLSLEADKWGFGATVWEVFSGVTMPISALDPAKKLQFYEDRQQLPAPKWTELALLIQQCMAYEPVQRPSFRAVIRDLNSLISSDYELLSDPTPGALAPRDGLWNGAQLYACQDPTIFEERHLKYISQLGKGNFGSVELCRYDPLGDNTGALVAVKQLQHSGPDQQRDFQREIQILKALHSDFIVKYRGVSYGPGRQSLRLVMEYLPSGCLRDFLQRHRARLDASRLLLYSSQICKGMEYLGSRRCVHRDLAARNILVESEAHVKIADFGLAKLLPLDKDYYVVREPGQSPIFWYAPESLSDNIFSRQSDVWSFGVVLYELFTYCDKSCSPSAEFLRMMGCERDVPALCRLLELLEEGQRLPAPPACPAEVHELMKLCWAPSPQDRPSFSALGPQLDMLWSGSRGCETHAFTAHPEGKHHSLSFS
Outline: (§1)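 GST-JAK + GFP-STAT1 peptide + cpd, 1 h preinc RT; ATP start, 1% DMSO, 1 h RT; stop 10 mM EDTA + 2 nM Tb-anti-pSTAT1; 1 h; TR-FRET 520/495. % inhib vs DMSO/background → IC50 (4-PL) → pKi (Cheng-Prusoff).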

[1] = system: IL-2 stimulated pSTAT5 in Tall-1 T cells; assay: Cellular JAK3 potency assay: inhibition of IL-2 stimulated pSTAT5 in Tall-1 T cells; format: cell-based, human; details: for IC50: Homo sapiens, TALL-1, IL-2 stimulated pSTAT5, Tall-1 T cells, read-out: Tall-1 (pIC50) (converted); for Tall-1 (pIC50): IL-2 stimulated pSTAT5, Tall-1 T cells
Outline: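 Inhibition of IL-2-induced pSTAT5 was quantified by AlphaLisa in Tall-1 cell lysates. Compound exposure lasted 1 h before 30 min stimulation with 300 ng/ml IL-2 final.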

Tyk2 = target: T3, Tyk2 (Homo sapiens, UniProt P29597); assay: Biochemical Tyk2 kinase assay (LanthaScreen); details: for Ki: read-out: Tyk 2 (pKi) (converted)
T3 construct: GST; purchased Life Technologies
T3 sequence (P29597 whole entry): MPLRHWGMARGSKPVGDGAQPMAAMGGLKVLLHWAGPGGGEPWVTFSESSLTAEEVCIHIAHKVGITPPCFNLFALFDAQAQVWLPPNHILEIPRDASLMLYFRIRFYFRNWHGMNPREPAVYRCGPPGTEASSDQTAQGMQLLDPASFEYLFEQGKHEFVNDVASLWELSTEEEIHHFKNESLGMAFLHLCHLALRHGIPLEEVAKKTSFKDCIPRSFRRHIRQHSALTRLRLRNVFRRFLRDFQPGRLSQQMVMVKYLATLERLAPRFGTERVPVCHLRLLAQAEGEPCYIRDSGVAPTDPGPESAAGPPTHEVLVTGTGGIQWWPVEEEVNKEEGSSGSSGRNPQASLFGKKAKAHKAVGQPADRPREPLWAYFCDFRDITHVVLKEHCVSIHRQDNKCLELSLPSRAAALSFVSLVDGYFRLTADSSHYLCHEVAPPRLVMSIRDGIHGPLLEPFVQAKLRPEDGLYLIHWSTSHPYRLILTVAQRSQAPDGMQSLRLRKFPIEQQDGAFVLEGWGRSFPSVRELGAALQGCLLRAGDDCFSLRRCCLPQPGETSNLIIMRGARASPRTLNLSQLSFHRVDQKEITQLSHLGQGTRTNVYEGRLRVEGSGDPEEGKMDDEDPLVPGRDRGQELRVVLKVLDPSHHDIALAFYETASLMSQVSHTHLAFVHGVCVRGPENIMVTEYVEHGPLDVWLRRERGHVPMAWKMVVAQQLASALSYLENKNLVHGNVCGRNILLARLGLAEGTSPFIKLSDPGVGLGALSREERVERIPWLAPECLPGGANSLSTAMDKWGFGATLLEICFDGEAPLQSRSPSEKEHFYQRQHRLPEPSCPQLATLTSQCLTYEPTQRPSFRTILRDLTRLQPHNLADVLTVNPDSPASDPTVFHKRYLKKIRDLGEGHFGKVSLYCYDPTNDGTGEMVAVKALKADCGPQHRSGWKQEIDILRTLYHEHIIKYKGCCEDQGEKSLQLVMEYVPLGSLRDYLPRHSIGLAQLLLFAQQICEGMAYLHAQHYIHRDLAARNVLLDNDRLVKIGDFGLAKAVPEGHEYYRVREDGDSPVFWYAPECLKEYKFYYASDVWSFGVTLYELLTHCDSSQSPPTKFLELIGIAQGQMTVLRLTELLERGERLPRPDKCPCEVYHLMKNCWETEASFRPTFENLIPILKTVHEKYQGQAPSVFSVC
Outline: as §1

JAK1 = target: T4, JAK1 (Homo sapiens, UniProt P23458); assay: Biochemical JAK1 kinase assay (LanthaScreen); details: for Ki: read-out: JAK 1 (pKi) (converted)
T4 construct: GST; purchased Life Technologies
T4 sequence (P23458 whole entry): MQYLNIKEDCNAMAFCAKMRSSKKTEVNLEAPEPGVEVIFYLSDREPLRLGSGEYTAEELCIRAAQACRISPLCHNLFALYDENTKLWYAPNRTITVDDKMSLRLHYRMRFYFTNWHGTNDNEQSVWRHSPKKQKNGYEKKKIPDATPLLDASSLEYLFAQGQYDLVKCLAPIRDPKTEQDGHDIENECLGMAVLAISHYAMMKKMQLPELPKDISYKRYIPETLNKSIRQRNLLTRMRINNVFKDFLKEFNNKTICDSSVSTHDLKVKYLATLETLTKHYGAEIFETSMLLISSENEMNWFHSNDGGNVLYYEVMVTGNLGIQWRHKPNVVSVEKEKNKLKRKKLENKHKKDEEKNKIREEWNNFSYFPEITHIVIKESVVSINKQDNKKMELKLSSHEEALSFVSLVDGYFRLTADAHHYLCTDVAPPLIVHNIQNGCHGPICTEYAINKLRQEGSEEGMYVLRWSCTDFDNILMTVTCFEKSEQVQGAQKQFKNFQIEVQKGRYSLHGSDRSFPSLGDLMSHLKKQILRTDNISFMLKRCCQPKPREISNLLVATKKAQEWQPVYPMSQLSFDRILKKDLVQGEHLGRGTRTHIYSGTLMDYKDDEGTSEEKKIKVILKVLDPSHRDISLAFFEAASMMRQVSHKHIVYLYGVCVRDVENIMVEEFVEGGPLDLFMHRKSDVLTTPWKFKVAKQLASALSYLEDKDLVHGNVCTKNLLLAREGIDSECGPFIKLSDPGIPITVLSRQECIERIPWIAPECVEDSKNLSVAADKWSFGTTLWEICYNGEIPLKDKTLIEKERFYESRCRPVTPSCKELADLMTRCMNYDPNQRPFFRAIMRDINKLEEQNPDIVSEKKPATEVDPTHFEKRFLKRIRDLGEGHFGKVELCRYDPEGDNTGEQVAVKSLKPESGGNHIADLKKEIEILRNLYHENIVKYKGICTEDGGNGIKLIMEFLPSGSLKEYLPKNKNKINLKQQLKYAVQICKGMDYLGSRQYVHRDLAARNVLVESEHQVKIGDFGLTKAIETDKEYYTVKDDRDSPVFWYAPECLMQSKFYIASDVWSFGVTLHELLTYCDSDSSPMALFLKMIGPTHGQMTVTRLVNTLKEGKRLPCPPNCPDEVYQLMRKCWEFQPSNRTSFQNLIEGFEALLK
Outline: as §1

T1 sequence (O60674 whole entry): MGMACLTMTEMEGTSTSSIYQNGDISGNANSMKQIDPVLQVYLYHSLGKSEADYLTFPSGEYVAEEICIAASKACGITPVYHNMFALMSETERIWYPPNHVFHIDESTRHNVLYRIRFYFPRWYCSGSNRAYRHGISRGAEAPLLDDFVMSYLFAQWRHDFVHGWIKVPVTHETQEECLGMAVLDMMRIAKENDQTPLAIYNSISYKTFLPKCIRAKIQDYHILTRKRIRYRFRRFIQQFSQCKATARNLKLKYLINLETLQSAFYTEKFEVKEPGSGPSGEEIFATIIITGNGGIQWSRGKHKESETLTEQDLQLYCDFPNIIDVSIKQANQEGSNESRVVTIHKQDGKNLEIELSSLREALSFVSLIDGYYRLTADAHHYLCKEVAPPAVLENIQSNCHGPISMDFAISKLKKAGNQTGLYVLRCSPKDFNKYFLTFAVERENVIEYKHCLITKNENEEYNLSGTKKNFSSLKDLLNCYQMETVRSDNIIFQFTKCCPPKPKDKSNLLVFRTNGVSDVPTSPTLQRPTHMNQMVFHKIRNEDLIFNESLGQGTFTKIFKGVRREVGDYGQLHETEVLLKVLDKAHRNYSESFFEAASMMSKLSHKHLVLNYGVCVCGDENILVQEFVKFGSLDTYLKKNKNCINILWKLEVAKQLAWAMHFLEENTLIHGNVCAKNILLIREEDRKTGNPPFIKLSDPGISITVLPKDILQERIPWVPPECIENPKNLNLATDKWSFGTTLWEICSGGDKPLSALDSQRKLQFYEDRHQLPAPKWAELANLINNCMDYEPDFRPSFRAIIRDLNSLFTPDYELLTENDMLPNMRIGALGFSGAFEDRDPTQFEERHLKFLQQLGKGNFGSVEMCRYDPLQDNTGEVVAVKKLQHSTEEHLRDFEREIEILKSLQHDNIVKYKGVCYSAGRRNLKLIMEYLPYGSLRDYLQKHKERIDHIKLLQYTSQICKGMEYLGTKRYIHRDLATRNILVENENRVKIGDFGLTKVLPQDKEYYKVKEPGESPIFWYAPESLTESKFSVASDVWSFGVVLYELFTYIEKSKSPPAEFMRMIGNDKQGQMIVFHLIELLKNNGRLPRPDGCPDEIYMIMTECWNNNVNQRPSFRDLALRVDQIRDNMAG

C=CC(=O)N1CCC(Oc2nc(-c3ccc(O)c(F)c3)cc3[nH]ncc23)CC1 [Compound 6-16]
Ki (JAK2): 10 to 100 nM
Ki (JAK3): 0.1 to 1 nM
JAK3 (pKi)-JAK1 (pKi) (JAK3): A (a value of 3 or above)
IC50 [1]: 31.6 to 200 nM
Ki (Tyk2): > 100 nM
Ki (JAK1): > 100 nM

C=CC(=O)N1CCC(Oc2cc(-c3ccc(O)c(Cl)c3)nc3[nH]ncc23)CC1 [Compound 6-17]
Ki (JAK2): > 100 nM
Ki (JAK3): < 0.1 nM
JAK3 (pKi)-JAK1 (pKi) (JAK3): A (a value of 3 or above)
IC50 [1]: 31.6 to 200 nM
Ki (Tyk2): > 100 nM
Ki (JAK1): > 100 nM

C=CC(=O)N1CCC(Oc2cc(-c3ccc(O)c(F)c3)nc3[nH]ncc23)CC1 [Compound 6-18]
Ki (JAK2): > 100 nM
Ki (JAK3): < 0.1 nM
JAK3 (pKi)-JAK1 (pKi) (JAK3): A (a value of 3 or above)
IC50 [1]: 31.6 to 200 nM
Ki (Tyk2): > 100 nM
Ki (JAK1): > 100 nM

CN(C)C/C=C/C(=O)N1CCC(Oc2cc(-c3ccc(O)c(F)c3)cc3[nH]ncc23)CC1 [Compound 6-20]
Ki (JAK2): 1 to 10 nM
Ki (JAK3): 0.1 to 1 nM
JAK3 (pKi)-JAK1 (pKi) (JAK3): B (a value of 2.3 to 3)
IC50 [1]: 31.6 to 200 nM
Ki (Tyk2): > 100 nM
Ki (JAK1): 10 to 100 nM

C=CC(=O)N1CCC(Oc2nc(-c3ccc(O)c(Cl)c3)cc3[nH]ncc23)CC1 [Compound 6-21]
JAK 2 (pKi) (JAK2): D (a pKi value between 7 and 8 (Ki between 100 nM and 10 nM))
JAK 3 (pKi) (JAK3): B (a pKi value between 9 and 10 (Ki between 1 nM and 0.1 nM))
JAK3 (pKi)-JAK1 (pKi) (JAK3): B (a value of 2.3 to 3)
Tall-1 (pIC50) [1]: B (a pIC50 value between 6.7 (included) and 7.5 (IC50 between 200 nM and 32 nM))
Tyk 2 (pKi) (Tyk2): E (a pKi value of 7 or below (Ki of 100 nM or above))
JAK 1 (pKi) (JAK1): D (a pKi value between 7 and 8 (Ki between 100 nM and 10 nM))

C=CC(=O)N1CCC(C)(Nc2cc(-c3ccc(O)cc3)cc3[nH]ncc23)CC1 [Compound 7-2]
JAK 2 (pKi) (JAK2): D (a pKi value between 7 and 8 (Ki between 100 nM and 10 nM))
JAK 3 (pKi) (JAK3): B (a pKi value between 9 and 10 (Ki between 1 nM and 0.1 nM))
JAK3 (pKi)-JAK1 (pKi) (JAK3): A (a value of 3 or above)
Tall-1 (pIC50) [1]: A (a pIC50 value≥7.5 (IC50≤32 nM))
Tyk 2 (pKi) (Tyk2): E (a pKi value of 7 or below (Ki of 100 nM or above))
JAK 1 (pKi) (JAK1): E (a pKi value of 7 or below (Ki of 100 nM or above))

C=CC(=O)N1CCC(N(C)c2cc(-c3ccc(O)cc3)cc3[nH]ncc23)CC1 [Compound 7-3]
JAK 2 (pKi) (JAK2): E (a pKi value of 7 or below (Ki of 100 nM or above))
JAK 3 (pKi) (JAK3): B (a pKi value between 9 and 10 (Ki between 1 nM and 0.1 nM))
JAK3 (pKi)-JAK1 (pKi) (JAK3): A (a value of 3 or above)
Tall-1 (pIC50) [1]: B (a pIC50 value between 6.7 (included) and 7.5 (IC50 between 200 nM and 32 nM))
Tyk 2 (pKi) (Tyk2): E (a pKi value of 7 or below (Ki of 100 nM or above))
JAK 1 (pKi) (JAK1): E (a pKi value of 7 or below (Ki of 100 nM or above))

C=CC(=O)N1CCC(Nc2cc(-c3ccc(O)cc3)cc3[nH]ncc23)CC1 [Compound 7-4]
Ki (JAK2): 1 to 10 nM
Ki (JAK3): 0.1 to 1 nM
JAK3 (pKi)-JAK1 (pKi) (JAK3): B (a value of 2.3 to 3)
IC50 [1]: < 31.6 nM
Ki (Tyk2): > 100 nM
Ki (JAK1): 10 to 100 nM

C=CC(=O)N1CCC(N(C)c2cc(-c3ccc(O)c(Cl)c3)cc3[nH]ncc23)CC1 [Compound 7-7]
JAK 2 (pKi) (JAK2): D (a pKi value between 7 and 8 (Ki between 100 nM and 10 nM))
JAK 3 (pKi) (JAK3): B (a pKi value between 9 and 10 (Ki between 1 nM and 0.1 nM))
JAK3 (pKi)-JAK1 (pKi) (JAK3): A (a value of 3 or above)
Tall-1 (pIC50) [1]: B (a pIC50 value between 6.7 (included) and 7.5 (IC50 between 200 nM and 32 nM))
Tyk 2 (pKi) (Tyk2): E (a pKi value of 7 or below (Ki of 100 nM or above))
JAK 1 (pKi) (JAK1): E (a pKi value of 7 or below (Ki of 100 nM or above))
